{"source": "patent US4230719A", "about": "“Novel 2-[4-(3-methyl-2-thienyl)phenyl]propionic acid and pharmaceutically acceptable salt thereof and method for treating symptoms of inflammation and pain” (Toyama Chemical Co., Ltd., priority 1977, dated 1980)", "key": {"[1]": {"system": "Carrageenin-induced edema", "experiment": "Carrageenin-induced edema", "assay_type": "in vivo, rat (Donryu strain, male)", "conditions": "Rattus norvegicus, po, mean in 5 hours, read-out: Inhibitory percent of swelling", "description": "(iii) Carrageenin-induced edema\nEach of the 6 Donryu strain male rats per group (each weighing about 140 g), which had been fasted overnight, was orally loaded with 4 ml of water and, after 30 minutes, the test compound was orally administered thereto. Thirty minutes thereafter, a 1%(Wt/V) solution of carrageenin in physiological saline was subcutaneously injected into the subplantar region of the left hind paw. At a time interval of one hour, starting from the end of the first hour till the end of the fifth hour after injection of carrageenin, the paw volume was measured by means of a manometer and pressure transducer. By comparison with the percent increase in swelling of the control group of rats to which a 0.5%(V/V) solution of Tween 80 had been administered, the mean inhibitory percent in 5 hours of swelling was calculated by the following equation: [formula]"}, "Vascular permeability [2]": {"system": "Vascular permeability", "experiment": "Vascular permeability in rat (Whittle's method)", "assay_type": "in vivo, rat (Wistar strain, male)", "description": "(ii) Vascular permeability in rat (Whittle's method)\nThe test compound was orally administered to each Wistar strain male rat (weighing about 150 g) which had been fasted overnight. After 55 minutes, 0.5 ml of a 0.5% Evans Blue solution was intravenously injected. Five minutes thereafter, 0.2 ml/100 g of a 3%(V/V) acetic acid solution was intraperitoneally injected. After 60 minutes from the injection of the acetic acid solution, the rats were killed by suffocation with chloroform. After immediate laparotomy, the dye leaked into the peritoneal cavity was washed out with physiological saline. The washings were made up with the saline to 30 ml and the absorbance at 640 mμ was measured to examine the effect of the test compounds by comparing the amounts of leaked dye per rat with one another."}, "in vivo": {"experiment": "in vivo", "conditions": "rat, po"}, "[3]": {"system": "phenylbenzoquinone writhing", "experiment": "Analgesic activity, phenylbenzoquinone method in mouse", "assay_type": "in vivo, mouse (ddY strain, male)", "conditions": "for Frequency of writhing, mean ± S.E.: during 10 minutes", "description": "(i) Phenylbenzoquinone method in mouse\nThe test compound was orally administered to each ddY strain male mouse (weighing 22±2 g; 8 mice per group). […] The frequency of writhing during 10 minutes from 5-minutes after the injection of phenylbenzoquinone was measured and compared with that of a control group to which a 0.5% Tween 80 solution was administered. The percent inhibition was calculated by the following equation: [formula]"}, "Adjuvant arthritis": {"system": "Adjuvant arthritis", "experiment": "Adjuvant arthritis", "assay_type": "in vivo, rat (Sprague-Dawley strain, male)", "conditions": "1 mg/kg p.o./day, mean during one week", "description": "A suspension containing 6 mg/ml of killed and dried Mycobacterium butyricum in liquid paraffin was subcutaneously injected into the subplantar region of the left hind paw of Sprague-Dawley strain male rats (weighing 180 to 200 g) in a proportion of 0.1 ml/rat. After 14 days, the rats having inflammatory paws of similar volumes were selected and the test compound was orally administered to the rats repeatedly at the rate shown in Table 4 during one week and the mean inhibitory percent of swelling during one week was determined."}, "[4]": {"system": "pain threshold (brewer's yeast, hind paw)", "experiment": "Analgesic activity, Randall-Selitto method in rat", "assay_type": "in vivo, rat (Wistar strain, male)", "conditions": "for Inhibition: 100% = pain threshold raised by 150 g", "description": "(ii) Randall-Selitto method in rat\nAfter one hour, the test compound was orally administered. One hour thereafter, the pain threshold value was measured four times at a time interval of one hour. The mean value of four values obtained was taken as the pain threshold value of each group of rats. The activity of the drug was assumed to be 100% when the pain threshold value was raised by 150 g."}, "[5]": {"system": "gastric mucosa and intestine", "experiment": "Test for ulcerogenic action (ii), three doses, rats on normal meal", "assay_type": "in vivo, rat (Donryu strain, male)", "design": "scale not given here", "description": "(ii) In the same manner as in (i), the test compound was orally administered to each Donryu strain male rat (weighing about 180 g; 10 rats per group) which had received normal meal. The second dose was administered after 8 hours and the third dose after 16 hours from the second dose. Five hours after the last administration, the rats were treated in the same manner as in (i). The gastric mucosa injury and the intestinal injury were scored in the same manner as in (i)."}, "[6]": {"system": "gastric mucosa and intestine", "experiment": "Test for ulcerogenic action (i), single dose, fasted rats", "assay_type": "in vivo", "conditions": "for Gastric glandular score: 18 hours, score 0 (no lesion) to 4 (many large ulcers or perforation)", "description": "(§1) (4) Test for ulcerogenic action\n(§2) After 18 hours, the rats were killed by suffocation with chloroform and their stomachs were excised. After having been filled with 5 ml of 1% formalin to fix the gastric mucosa, each stomach was incised along the greater curvature to inspect grossly the extent of injury of the gastric mucosa. The extent of injury was scored as follows: 0, no lesion; 1, petechia or erosion; 2, 1-5 small ulcers; 3, many small ulcers; 4, many large ulcers or perforation. The intestinal injury was evaluated based on the incidence of erosion."}, "[7]": {"experiment": "Test for ulcerogenic action (i), single dose, fasted rats", "assay_type": "in vivo", "conditions": "rat, in vivo, po", "description": "as §1, §2"}, "Vascular permeability [8]": {"system": "Vascular permeability", "experiment": "Vascular permeability in mice (Whittle's method)", "assay_type": "in vivo, mouse (ddY strain, male)", "conditions": "for Inhibition: dye leakage", "description": "(i) Vascular permeability in mice (Whittle's method)\nThe test compound was orally administered to each ddY strain male mouse (weighing each about 20 g). After 20 minutes, 0.1 ml/10 g of a 4%(Wt/V) solution of Pontamine Sky Blue in physiological saline was intravenously injected and 10 minutes thereafter 0.1 ml/10 g of a 0.7%(V/V) solution of acetic acid in physiological saline was injected intraperitoneally. After 30 minutes, the mice were killed by suffocation with chloroform. After immediate laparotomy, the dye leaked into the peritoneal cavity was washed out with distilled water. The washings were made up with water to 30 ml and the absorbance at 620 mμ was measured. The amount of leaked dye per 20 g of mouse weight was compared."}}, "data": [{"smiles": "CC(C(=O)O)c1ccc(-c2cccs2)cc1", "note": "(centres unmarked) [Compound C2]", "values": [{"measurement": "inhibition in vivo at 1 mg/kg", "setting": "[1]; 1 mg/kg p.o.", "value": 11.8, "unit": "%"}, {"measurement": "inhibition in vivo at 5 mg/kg", "setting": "[1]; 5 mg/kg p.o.", "value": 32.9, "unit": "%"}, {"measurement": "Inhibition", "setting": "Vascular permeability [2]; 1 mg/kg p.o.", "value": 16.4, "unit": "%"}, {"measurement": "Inhibition", "setting": "Vascular permeability [2]; 5 mg/kg p.o.", "value": 47.3, "unit": "%"}, {"measurement": "ED30", "setting": "Vascular permeability [2]; po, rat, read-out: ED30", "value": 2.1, "unit": "mg/kg"}, {"measurement": "LD50", "setting": "in vivo", "value": 115, "unit": "mg/kg"}, {"measurement": "Frequency of writhing, mean ± S.E.", "setting": "[3]; 10 mg/kg p.o.", "value": "22.3 ± 1.9"}, {"measurement": "Frequency of writhing, mean ± S.E.", "setting": "[3]; 20 mg/kg p.o.", "value": "14.6 ± 3.1"}, {"measurement": "Frequency of writhing, mean ± S.E.", "setting": "[3]; 40 mg/kg p.o.", "value": "11.1 ± 2.4"}, {"measurement": "inhibition in vivo at 10 mg/kg", "setting": "[3]; Mus musculus, po, 10 min, writhing, 10 mg/kg p.o., read-out: Inhibition", "value": 5.5, "unit": "%"}, {"measurement": "inhibition in vivo at 20 mg/kg", "setting": "[3]; Mus musculus, po, 10 min, writhing, 20 mg/kg p.o., read-out: Inhibition", "value": 38.1, "unit": "%"}, {"measurement": "inhibition in vivo at 40 mg/kg", "setting": "[3]; Mus musculus, po, 10 min, writhing, 40 mg/kg p.o.", "value": 53, "unit": "%"}, {"measurement": "ED50", "setting": "[3]; po, mouse, read-out: ED50", "value": 33, "unit": "mg/kg"}, {"measurement": "Inhibitory percent of swelling", "setting": "Adjuvant arthritis", "value": 7.2, "unit": "%"}, {"measurement": "Inhibition", "setting": "[4]; 1 mg/kg p.o.", "value": 33.8, "unit": "%"}, {"measurement": "Inhibition", "setting": "[4]; 5 mg/kg p.o.", "value": 35.2, "unit": "%"}, {"measurement": "Inhibition", "setting": "[4]; 25 mg/kg p.o.", "value": 58.5, "unit": "%"}, {"measurement": "ED50", "setting": "[4]; po, rat, read-out: ED50", "value": 14.5, "unit": "mg/kg"}, {"measurement": "Score, intestine, mean ± S.E.", "setting": "[5]; 5 mg/kg × 3 p.o.", "value": "1.07 ± 0.30"}, {"measurement": "Score, stomach, mean ± S.E.", "setting": "[5]; 5 mg/kg × 3 p.o.", "value": "1.21 ± 0.18"}, {"measurement": "Score, intestine, mean ± S.E.", "setting": "[5]; 15 mg/kg × 3 p.o.", "value": "1.17 ± 0.21"}, {"measurement": "Score, stomach, mean ± S.E.", "setting": "[5]; 15 mg/kg × 3 p.o.", "value": "2.33 ± 0.31"}, {"measurement": "Intestine erosion incidence", "setting": "[6]; 10 mg/kg p.o.", "value": "1/7"}, {"measurement": "Gastric glandular score", "setting": "[6]; 10 mg/kg p.o.", "value": "1.11 ± 0.21"}, {"measurement": "Intestine erosion incidence", "setting": "[6]; 30 mg/kg p.o.", "value": "1/7"}, {"measurement": "Gastric glandular score", "setting": "[6]; 30 mg/kg p.o.", "value": "1.89 ± 0.24"}, {"measurement": "Intestine erosion incidence", "setting": "[6]; 100 mg/kg p.o.", "value": "6/7"}, {"measurement": "Gastric glandular score", "setting": "[6]; 100 mg/kg p.o.", "value": "3.61 ± 0.26"}, {"measurement": "Death incidence", "setting": "[6]; rat, in vivo", "value": "3/7"}, {"measurement": "TD50 at 18 h", "setting": "[7]", "value": 25, "unit": "mg/kg"}, {"measurement": "Dye leakage (P.S.B.) mean ± S.E.", "setting": "Vascular permeability [8]; 5 mg/kg p.o.", "value": "314.7 ± 31.3", "unit": "μg/20g"}, {"measurement": "Dye leakage (P.S.B.) mean ± S.E.", "setting": "Vascular permeability [8]; 10 mg/kg p.o.", "value": "264.8 ± 21.8", "unit": "μg/20g"}, {"measurement": "Inhibition", "setting": "Vascular permeability [8]; 5 mg/kg p.o.", "value": 1.9, "unit": "%"}, {"measurement": "Inhibition", "setting": "Vascular permeability [8]; 10 mg/kg p.o.", "value": 17.5, "unit": "%"}, {"measurement": "ED30", "setting": "Vascular permeability [8]; po, mouse, read-out: ED30", "value": 19.8, "unit": "mg/kg"}]}]}
